The numbers were not newly measured in paper PMC4895178 (Scientific Reports, 2016), which cites them from elsewhere.

For the series the following is noted: in plasma. The text has this: The pioneering work of Vale et al.[8] established that residues 7 to 10 form the ph ...

`C[C@H](N)C(=O)NCC(=O)N[C@H]1CSSC[C@@H](C(=O)O)NC(=O)[C@H](CO)NC(=O)[C@H]([C@@H](C)O)NC(=O)[C@H](Cc2ccccc2)NC(=O)[C@H]([C@@H](C)O)NC(=O)[C@H](CCCCN)NC(=O)[C@H](Cc2c[nH]c3ccccc23)NC(=O)[C@H](Cc2ccccc2)NC(=O)[C@H](Cc2ccccc2)NC(=O)[C@H](CC(N)=O)NC(=O)[C@H](CCCCN)NC1=O` [Somatostatin (SRIF), Somatostatin]: the half-life was 2 to 3 min.
